Values after ≈ are worked out from the molar mass of the structure shown. Read-outs that look alike come from different tables or passages of the source.
How the values were obtained:
[1] = Fecal elimination of fluralaner after oral administration, Iberian wolf; format: in vivo, Canis lupus; settings: Iberian wolf n = 1
Procedure: (§1) Based on the species present at the Paris Zoo, the animals selected to be part of the study are described in Table 1.
(§2) Each individual received 1–3 tablets of fluralaner (Bravecto®, formulations from 112.5 mg to 1,400 mg per tablet), based on the dose determined (Table 2) and the actual BW of the animal on day 0 (D0). Tablets were administered with the food. Tablets were not divided, according to the summary of product characteristics and the dose administered was adjusted as closely as possible to the theoretical dose calculated. The recommended bracket doses (25–56 mg/kg in a 20-kg dog) were used as a guideline (adjusted to the body weight of the animals) to ensure that the actual dose administered would remain in the acceptable margin. For instance, for the Iberian Wolf: using the dose range 25–56 mg/kg gave a D-reference of [500–1,120] mg, thus c = D-ref/P-ref = [0.76–1.69], i.e., D-target = [763–1,698] mg, resulting in a reference range of [21.9–48.6] mg.kg^−1. The actual doses administered were between 28 and 30 mg.kg^−1. This was checked for all species.
(§3) Feces were sampled on the floor, in priority on concrete ground in indoor facilities when animals were isolated. Fecal sampling was performed by keepers with gloves, transferred to sterile vials, then saved at −80°C until transfer to the lab.
(§4) For feces analysis, well-homogenized samples were weighed and dried at 40°C overnight to eliminate water. 200 mg of the dried sample were weighed, 80 μL of IS solution (0.5 μg/mL solution), 0.52 mL of water, 200 mg QuEChERS salts and 1 mL of acetonitrile were added in a 5 mL plastic centrifuge tube. The sample was then mixed well by vortexing for 2 min and then centrifuged at 12,000 rpm for 5 min.
(§5) The upper clear layer solutions were transferred to auto-sampler vials and placed in the auto-sampler at 10°C for LC–MS/MS analysis. All results are reported in μg.kg^−1 dry weight (dw).
(§6) All pharmacokinetic data were computed using a non-linear model and “PK solver” in Microsoft-excel®. This approach has been used by Kilp et al. ([21]) and considered satisfactory by comparison with a standard PK software such as WinNonLIn®.
(§7) Only Lion and Mountain lion data (3 individuals+negative control for each species) are presented in Figure 2 as mean ± SD of the fecal concentration of fluralaner vs. time post administration. When data were LOD < Data<LOQ, an average value of 4 has been used (for graphical and PK analysis purposes). When concentrations were < LOD, ½ LOD value was used for the same purposes.

[2] = cited from earlier work
[3] = test system: sarcoptic mange; design: method as in PMID 30895701; settings: Raccoon dogs, one oral dose; cited from earlier work
[4] = test system: honey bees; design: method as in ref 10 = [10]; 10. CVMP ( 2017 ) CVMP assessment report for EXZOLT (EM EA/V/C/004344/0000), EMA/377159/2017, Available at: https://www.ema.europa.eu/en/documents/assessment-report/exzolt-epar-public-assessment-repor; settings: cited from earlier work
[5] = test system: Daphnia magna; design: method as in ref 10 = [10]; 10. CVMP ( 2017 ) CVMP assessment report for EXZOLT (EM EA/V/C/004344/0000), EMA/377159/2017, Available at: https://www.ema.europa.eu/en/documents/assessment-report/exzolt-epar-public-assessment-repor; settings: cited from earlier work
[6] = Fecal elimination of fluralaner after oral administration, South American coati; format: in vivo, Nasua nasua; settings: South American coati n = 1
Procedure: as §1, §2, §3, §4, §5, §6, §7

[7] = cited from earlier work; remark: listed apart in the source
[8] = Fecal elimination of fluralaner after oral administration, Fossa; format: in vivo, Cryptoprocta ferox; settings: Fossa n = 1
Procedure: as §1, §2, §3, §4, §5, §6, §7

[9] = Oral Bravecto in zoo carnivores, all treated animals (tolerance, fecal residues); format: in vivo
Procedure: as §1, §2, §3

[10] = Fecal elimination of fluralaner after oral administration, Jaguar; format: in vivo, Panthera onca; settings: Jaguar n = 1
Procedure: as §1, §2, §3, §4, §5, §6, §7

[11] = Fecal elimination of fluralaner after oral administration, Suricate; format: in vivo, Suricatta suricatta; settings: feces, Suricate n = 1
Procedure: as §1, §2, §3, §4, §5, §6, §7

[12] = design: method as in PMID 28103942; settings: 221 dogs treated; cited from earlier work
[13] = Fecal elimination of fluralaner after oral administration, Mountain lion; format: in vivo, Puma concolor
Procedure: as §1, §2, §3, §4, §5, §6, §7

[14] = fecal elimination, oral 28.6 mg.kg^−1
[15] = fecal elimination, oral 52.1 mg.kg^−1
[16] = fecal elimination, oral 26.3 mg.kg^−1
[17] = fecal elimination, oral 34.5 mg.kg^−1
[18] = fecal elimination, Mountain lion n = 3, mean ± SD, oral 20.8–25.0 mg.kg^−1
[19] = feces, Mountain lion n = 3, mean ± SD, oral 20.8–25.0 mg.kg^−1

Cc1cc(C2=NOC(c3cc(Cl)cc(Cl)c3)(C(F)(F)F)C2)ccc1C(=O)NCC(=O)NCC(F)(F)F (stereo not drawn) [fluralaner, Fluralaner]
MRT [1, 14]: 140 h | t1/2 [1, 14]: 120 h | Cmax ([1]; feces, Bravecto tablet oral with food, 28.6 mg.kg^−1, rough estimate): 620 μg.kg-^1 dry weight | AUC (D0-D112) ([1]; feces, oral 28.6 mg.kg^−1): 7,218 d* μg.kg-^1 dry weight | AUC(0-infini) ([1]; feces, oral 28.6 mg.kg^−1): 7,260 d* μg.kg-^1 dry weight | Last detection day ([1]; feces, oral 28.6 mg.kg^−1): 31 days | tmax ([1]; feces, oral 28.6 mg.kg^−1, rough estimate): 24 h | DT50 in soil ([2]; CVMP assessment report): ~1,000 days | DT50 in soil ([2]; VSDB): 60 days | DT50 in aquatic environments ([2]; aerobic waters): 3 to 4 days | DT50 in soil ([2]; sandy loams): up to 989 days | DT50 in sediments ([2]; sediments): 112 to 195 days | Time to cure from sarcoptic mange [3]: 7 days | Toxicity classification [4]: highly toxic | LC50 ([5]; Daphnia magna, assessment report for EXZOLT): 0.047 µg/mL (≈ 0.0845 µM) | No Observed Effect Concentration (NOEC) for reproduction ([5]; Daphnia magna): 0.047 µg/L | Toxicity classification ([5]; aquatic invertebrates (Daphnia magna)): highly toxic | MRT [6, 15]: 912 h | t1/2 [6, 15]: 624 h | Cmax ([6]; feces, Bravecto tablet oral with food, 52.1 mg.kg^−1, rough estimate): 453 μg.kg-^1 dry weight | AUC (D0-D112) ([6]; feces, oral 52.1 mg.kg^−1): 7,688 d* μg.kg-^1 dry weight | AUC(0-infini) ([6]; feces, oral 52.1 mg.kg^−1): 8,998 d* μg.kg-^1 dry weight | Last detection day ([6]; feces, oral 52.1 mg.kg^−1): 82 days | tmax ([6]; feces, oral 52.1 mg.kg^−1, rough estimate): 24 h | Administered dose eliminated unchanged in the feces [7]: 90% | Administered dose eliminated unchanged in the feces ([7]; rats, dogs and chickens): up to 90% | Eliminated via the feces as the unchanged compound ([7]; reference not given): > 90% | MRT [8, 16]: 24 h | t1/2 [8, 16]: 72 h | Cmax ([8]; feces, Bravecto tablet oral with food, 26.3 mg.kg^−1, rough estimate, residues in control animal in same cage): 370,295 μg.kg-^1 dry weight | AUC (D0-D112) ([8]; feces, oral 26.3 mg.kg^−1): 1,373,277 d* μg.kg-^1 dry weight | AUC(0-infini) ([8]; feces, oral 26.3 mg.kg^−1): 1,373,579 d* μg.kg-^1 dry weight | Last detection day ([8]; feces, oral 26.3 mg.kg^−1): 35 days | tmax ([8]; feces, oral 26.3 mg.kg^−1, rough estimate): 24 h | Adverse reaction during the course of the study ([9]; all animals treated, oral Bravecto tablets, allometrically scaled dose): No adverse reaction was noted | Concentrations detected in fecal samples throughout the study ([9]; feces, highest value): up to 44,000 μg/kg | Duration of elimination in feces as an active substance ([9]; our study): up to 3 months | MRT [10, 17]: 360 h | t1/2 [10, 17]: 190 h | Cmax ([10]; feces, Bravecto tablets oral with food, 34.5 mg.kg^−1, rough estimate): 16,089 μg.kg-^1 dry weight | AUC (D0-D112) ([10]; feces, oral 34.5 mg.kg^−1): 145,337 d* μg.kg-^1 dry weight | AUC(0-infini) ([10]; feces, oral 34.5 mg.kg^−1): 145,752 d* μg.kg-^1 dry weight | Last detection day ([10]; feces, oral 34.5 mg.kg^−1): 72 days | tmax ([10]; feces, oral 34.5 mg.kg^−1, rough estimate): 170 h | Cmax ([11]; Bravecto tablet oral with food, 125 mg.kg^−1, rough estimate, residues in control animal in same cage): 15 μg.kg-^1 dry weight | AUC (D0-D112) ([11]; oral 125 mg.kg^−1): 105 d* μg.kg-^1 dry weight | Last detection day ([11]; oral 125 mg.kg^−1): 14 days | tmax ([11]; oral 125 mg.kg^−1, rough estimate): 336 h | Dogs displaying alopecia [12]: 4% | Dogs displaying vomiting [12]: 6% | MRT [13, 18]: 72 ± 24 h | t1/2 [13, 18]: 140 ± 24 h | Cmax ([13]; feces, Mountain lion n = 3, mean ± SD, Bravecto tablets oral with food, 20.8–25.0 mg.kg^−1, rough estimate): 12,909 ± 4,954 μg.kg-^1 dry weight | AUC (D0-D112) [13, 19]: 54,158±19,755 d* μg.kg-^1 dry weight | AUC(0-infini) [13, 19]: 54,786±19,755 d* μg.kg-^1 dry weight | Last detection day ([13]; feces, Mountain lion n = 3, oral 20.8–25.0 mg.kg^−1): 49 days | tmax ([13]; feces, Mountain lion n = 3, oral 20.8–25.0 mg.kg^−1, rough estimate): 24 h

— publication PMC11362066, “Fecal elimination of fluralaner in different carnivore species after oral administration” (Frontiers in Veterinary Science, 2024)
